Earlier results as cited in patent publication US20040176344A1, “METHOD TO TREAT PATIENTS WITH AMYOTROPHIC LATERAL SCLEROSIS AND THE LIKE” (priority 2004, published 2004).

What was measured:
mouse of ALS = details: mouse model of ALS; J Neurochem 2003
[1] = acute intermittent porphyria; Khanderia 1986

SMILES | effect on disease progression (mouse of ALS) | adverse effect that precludes prophylactic use [1]
Cl.O=C([O-])c1ccc(-c2c3nc(c(-c4ccc(C(=O)O)cc4)c4nc(c(-c5ccc(C(=O)O)cc5)c5ccc([nH]5)c(-c5ccc(C(=O)[O-])cc5)c5ccc2[n-]5)C=C4)C=C3)cc1.[Fe+3] [FeTCPP] | helpful in slowing disease progression | 
C=CC1=C(C)c2cc3[n-]c(cc4[n-]c(cc5nc(cc1n2)C(C)=C5C=C)c(C)c4CCC(=O)O)c(CCC(=O)O)c3C.O.[Fe+2] [hematin] |  | causes circulatory collapse
